Here are results for four molecules from US20200317639A1, “POLYMORPHS OF N-[(2,6-DIFLUORO-3-METHOXYPHENYL)METHYL]-3-(METHOXYMETHYL)-1-({4-[(2-OXOPYRIDIN-1YL)METHYL]PHENYL}METHYL)PYRAZOLE-4-CARBOXAMIDE” (KALVISTA PHARMACEUTICALS LIMITED, priority 2016, published 2020).

Series [1] is described as follows: Stability study, 40° C./75% RH 6 months and 25° C./60% RH 12 months, packed. The series is classed as physicochemical. As to the method: Yet further evidence of the suitability of the crystalline forms for pharmaceutical development is provided by additional stability data disclosed herein. Form 1 of N-[(2,6-difluoro-3-methoxyphenyl)methyl]-3-(methoxymethyl)-1-({4-[(2-oxopyridin-1-yl)methyl]phenyl}methyl)pyrazole-4-carboxamide was stored separately at two conditions of 40° C./75% RH for 6 months and 25° C./60% RH for 12 months packed into double polyethylene bags inside an HDPE bottle sealed with a screw cap closure.
Further samples of Form 1 were stored separately at two conditions of 40° C./75% RH for 6 months and 25° C./60% RH for 12 months packed into double polyethylene bags inside an HDPE bottle sealed with a screw cap closure. In this stability study X-Ray Powder Diffraction patterns were collected on a PANalytical X'Pert PRO diffractometer using CuKα radiation (45 kV, 40 mA), θ-θ goniometer, focusing mirror (Cu W/Si), divergence slit (½°), soller slits at both incident and diffracted beam (0.04 RAD), fixed mask (4 mm) and a PIXcel detector. The software used for data collection was X′Pert Data Collector, version 2.2f. The instrument was performance checked using a certified Standard Reference Material 640 d, Silicon Powder (NIST). XRPD patterns were acquired under ambient conditions via a transmission foil sample stage (polyimide—Kapton, TF-475, 7.5 μm thickness film). The specimen was examined with approximately 5 mg of the sample examined as dispensed onto the sample stage. The data collection range was 2.994-35.0056° […] with a step size of 0.0263° and a continuous scan speed of 0.202004° s^−1. No change in the XRPD diffractogram was observed after 6 months at 40° C./75% RH or after 12 months at 25° C./60% RH (FIG. 16).
Further tests on the samples of Form 1 stored at 25° C./60% RH and 40° C./75% RH were carried out as described in the table below.

Series [2] in a line: Gravimetric Vapour Sorption (GVS). The series is classed as physicochemical. As to the method: Gravimetric Vapour Sorption (GVS) data were collected using the following method: Approximately 10 mg of sample was placed into a wire-mesh vapour sorption balance pan and loaded into an ‘IgaSorp’ vapour sorption balance (Hiden Analytical Instruments). The sample was then dried by maintaining a 0% humidity environment until no further weight change was recorded. Subsequently, the sample was then subjected to a ramping profile from 0-90% RH at 10% RH increments, maintaining the sample at each step until equilibration had been attained (99% step completion). Upon reaching equilibration, the % RH within the apparatus was ramped to the next step and the equilibration procedure repeated. After completion of the sorption cycle, the sample was then dried using the same procedure. The weight change during the sorption/desorption cycles were then monitored, allowing for the hygroscopic nature of the sample to be determined.

Series [3] in a line: Stability study, open vial, 40° C./75% RH, 7 and 28 days. The series is classed as physicochemical. Particulars: for XRPD change on storage: open glass vial covered with tissue. As to the method: Further evidence of the suitability of the crystalline forms for pharmaceutical development is provided by the stability data disclosed herein. Form 1 of N-[(2,6-difluoro-3-methoxyphenyl)methyl]-3-(methoxymethyl)-1-({4-[(2-oxopyridin-1-yl)methyl]phenyl}methyl)pyrazole-4-carboxamide was stored at 40° C./75% RH in a open glass vial covered with tissue. […] (FIG. 3).
A sample of Form 1 was placed in an open vial covered with tissue in a dessicator under accelerated stability conditions of 40° C./75% RH. The sample was reanalysed after 7 days and 28 days by XRPD, STA and DSC using the same methods as described above.

The test system of another series is rats. Particulars: systemic administration; cited from earlier work.
For series [4] the following is noted: in vivo; cited from earlier work.
A further series concerns postoperative bleeding. The settings on record: in vivo; cited from earlier work.

Entries after “also recorded” stand apart in the source; their conditions may differ.

Consider `COCc1nn(Cc2ccc(Cn3ccccc3=O)cc2)cc1C(=O)NCc1c(F)ccc(OC)c1F` [Form 1, N-[(2,6-difluoro-3-methoxyphenyl)methyl]-3-(methoxymethyl)-1-({4-[(2-oxopyridin-1-yl)methyl]phenyl}methyl)pyrazole-4-carboxamide], for which the Appearance result was “As initial” in series [1] (25° C./60% RH, 12 months); “As initial” in series [1] (40° C./75% RH, 6 months); “A white solid. Free from” in series [1] (Initial, 0 months). Moreover, the “Assay (% w/w on an anhydrous basis)” value was 99.94 % w/w in series [1] (25° C./60% RH, 12 months); 99.31 % w/w in series [1] (40° C./75% RH, 6 months); 100.18 % w/w in series [1] (Initial, 0 months). Besides, the “Assay (% w/w “as-is”)” value in series [1] (25° C./60% RH, 12 months) worked out at 99.78 % w/w; in series [1] (40° C./75% RH, 6 months), 99.1 % w/w. In addition, the “DSC Onset” value in series [1] (25° C./60% RH, 12 months) is “Onset = 156.8 °C”; in series [1] (40° C./75% RH, 6 months) it was “Onset = 157.5 °C”; in series [1] (Initial, 0 months), “Onset = 156.3 °C”. In addition, the “DSC Peak” value in series [1] (25° C./60% RH, 12 months) was “Peak = 159.5 °C”; in series [1] (40° C./75% RH, 6 months), “Peak = 159.8 °C”; in series [1] (Initial, 0 months), “Peak = 158.9 °C”. In addition, the “Purity (% area)” value in series [1] (25° C./60% RH, 12 months) worked out at 100 % area; in series [1] (40° C./75% RH, 6 months), 99.99 % area; in series [1] (Initial, 0 months), 100 % area. For the same molecule, the “Water content (% w/w)” value in series [1] (25° C./60% RH, 12 months) amounted to 0.12 % w/w; in series [1] (40° C./75% RH, 6 months) it was 0.17 % w/w; in series [1] (Initial, 0 months), 0.19 % w/w. Besides, the XRPD entry in series [1] (25° C./60% RH, 12 months) is reported as “no change; also recorded: As initial”; in series [1] (40° C./75% RH, 6 months), “no change; also recorded: As initial”; in series [1] (Initial, 0 months), “Conforms to Form 1”. Besides, the “Impurity Profile by HPLC (% area), Approx RRT 1.16” value in series [1] (40° C./75% RH, 6 months) came to 0.03 % area. The “Impurity Profile by HPLC (% area), Approx RRT 1.12” value in series [1] (Initial, 0 months) is recorded as 0.03 % area. For the same molecule, the “All measured parameters including Assay, Water Content, XRPD, DSC, Purity and Impurity Profile” value in series [1] (over the course of the study (6 months 40° C./75% RH, 12 months 25° C./60% RH)) is on record as “remained unchanged”. Moreover, the “Hygroscopicity by GVS” value in series [2] was “absence of significant hygroscopicity”. The “%-Wt (dry basis), Adsorption” value in series [2] (0.007 %-RH) came out at 0.000001 %-Wt; in series [2] (0.008 %-RH), 0.001373 %-Wt; in series [2] (10.023 %-RH) it was 0.07544 %-Wt; in series [2] (20.021 %-RH) it was 0.1619 %-Wt; in series [2] (30.013 %-RH) it was 0.2634 %-Wt; in series [2] (40.002 %-RH) it was 0.3978 %-Wt. Further, the “%-Wt (dry basis), Adsorption” value turned out to be 0.5926 %-Wt in series [2] (50.002 %-RH); 0.8573 %-Wt in series [2] (59.996 %-RH); 1.311 %-Wt in series [2] (69.993 %-RH); 2.17 %-Wt in series [2] (79.987 %-RH); 4.173 %-Wt in series [2] (89.98 %-RH). Besides, the “%-Wt (dry basis), Desorption” value in series [2] (0.32 %-RH) is 0.002745 %-Wt; in series [2] (5 %-RH), 0.04664 %-Wt; in series [2] (14.995 %-RH), 0.09053 %-Wt; in series [2] (24.99 %-RH), 0.1934 %-Wt; in series [2] (34.982 %-RH), 0.2908 %-Wt; in series [2] (44.976 %-RH), 0.4554 %-Wt. Moreover, the “%-Wt (dry basis), Desorption” value was determined as 0.6474 %-Wt in series [2] (55.026 %-RH); 1.033 %-Wt in series [2] (65.02 %-RH); 1.653 %-Wt in series [2] (75.011 %-RH); 2.905 %-Wt in series [2] (85.005 %-RH); 4.173 %-Wt in series [2] (89.98 %-RH). In addition, the “Reversibility of hydration (hysteresis) by GVS” value in series [2] (FIG. 4) is reported as “hydration is reversible (i.e. no significant hysteresis)”. In addition, the “Increase in water content by GVS” value in series [2] (normal conditions (up to 70% relative humidity)) is “only a relatively gradual increase in water content”. Besides, the “XRPD change on storage” value is listed as “no change” in series [3] (40° C./75% RH, 7 days) and “no change” in series [3] (40° C./75% RH, 28 days). For the same molecule, the DSC onset temperature stood at 155.2 °C in series [3] (40° C./75% RH, open vial, after 7 days); 155.0 °C in series [3] (40° C./75% RH, open vial, after 28 days); 154.9 °C in series [3] (initial timepoint).
Consider `N=C(N)c1ccc(CNC(=O)c2cnn(Cc3ccccc3)c2)cc1` [ASP-440], for which the Hematoma expansion entry in the series with rats is on record as “reduced hematoma expansion”. The Oral availability result in series [4] was “poor oral availability”.
As for aprotinin, the Postoperative bleeding entry with postoperative bleeding was “may be used to decrease postoperative bleeding”.
On to `COCc1nn(Cc2ccc(Cn3ccccc3=O)cc2)cc1C(=O)NCc1c(F)ccc(OC)c1F` [Form A, N-[(2,6-Difluoro-3-methoxyphenyl)methyl]-3-(methoxymethyl)-1-({4-[(2-oxopyridin-1-yl)methyl]phenyl}methyl)pyrazole-4-carboxamide], for which the “%-Wt (dry basis), Desorption” value in series [2] (0.01 %-RH) is on record as 1.174 %-Wt; in series [2] (5.002 %-RH), 2.121 %-Wt; in series [2] (15.039 %-RH), 3.537 %-Wt; in series [2] (25.192 %-RH), 5.219 %-Wt; in series [2] (34.985 %-RH) it was 6.774 %-Wt; in series [2] (44.978 %-RH) it was 7.808 %-Wt. Further, the “%-Wt (dry basis), Desorption” value stood at 8.516 %-Wt in series [2] (55.023 %-RH); 9.185 %-Wt in series [2] (65.019 %-RH); 9.927 %-Wt in series [2] (75.011 %-RH); 10.43 %-Wt in series [2] (85.009 %-RH); 10.71 %-Wt in series [2] (89.98 %-RH). The “%-Wt (dry basis), Adsorption” value in series [2] (0.012 %-RH) came to 0.003304 %-Wt; in series [2] (0.013 %-RH), 0.004135 %-Wt; in series [2] (10.022 %-RH), 0.3314 %-Wt; in series [2] (20.014 %-RH) it was 0.7833 %-Wt; in series [2] (30.014 %-RH) it was 1.246 %-Wt; in series [2] (40.009 %-RH), 1.892 %-Wt. Also, the “%-Wt (dry basis), Adsorption” value in series [2] (49.999 %-RH) stood at 2.49 %-Wt; in series [2] (59.993 %-RH), 3.239 %-Wt; in series [2] (69.992 %-RH), 4.507 %-Wt; in series [2] (79.981 %-RH) it was 7.117 %-Wt; in series [2] (89.98 %-RH) it was 10.71 %-Wt.
